# Laboratory results published in the NIST ThermoML archive (doi:10.1021/je700260f).
# Numbers after ± are expanded uncertainties.
# Details: 333.15 K, Liquid, Vibrating tube method
compound,measurement,setting,value
"FC(C(F)(F)F)C(F)(F)F [1,1,1,2,3,3,3-heptafluoropropane]",mass density,6413 kPa,1291.3 ± 1.5 kg/m3
same,mass density,6442 kPa,1291.6 ± 1.5 kg/m3
same,mass density,6789 kPa,1295.3 ± 1.5 kg/m3
same,mass density,6821 kPa,1295.6 ± 1.5 kg/m3
same,mass density,6856 kPa,1296 ± 1.5 kg/m3
same,mass density,6887 kPa,1296.2 ± 1.5 kg/m3
same,mass density,6965 kPa,1297 ± 1.5 kg/m3
same,mass density,7009 kPa,1297.4 ± 1.5 kg/m3
same,mass density,8110 kPa,1308.2 ± 1.5 kg/m3
same,mass density,8143 kPa,1308.5 ± 1.5 kg/m3
same,mass density,8176 kPa,1308.8 ± 1.5 kg/m3
same,mass density,8204 kPa,1309.2 ± 1.5 kg/m3
same,mass density,8236 kPa,1309.5 ± 1.5 kg/m3
same,mass density,8273 kPa,1309.8 ± 1.5 kg/m3
same,mass density,8298 kPa,1310.1 ± 1.5 kg/m3
same,mass density,8328 kPa,1310.3 ± 1.5 kg/m3
same,mass density,8357 kPa,1310.6 ± 1.5 kg/m3
same,mass density,8395 kPa,1311 ± 1.5 kg/m3
same,mass density,8425 kPa,1311.2 ± 1.5 kg/m3
same,mass density,8467 kPa,1311.5 ± 1.5 kg/m3
same,mass density,8497 kPa,1311.8 ± 1.5 kg/m3
same,mass density,8538 kPa,1312.3 ± 1.5 kg/m3
same,mass density,8560 kPa,1312.4 ± 1.5 kg/m3
same,mass density,8592 kPa,1312.8 ± 1.5 kg/m3
same,mass density,8622 kPa,1313 ± 1.5 kg/m3
same,mass density,8665 kPa,1313.3 ± 1.5 kg/m3
same,mass density,8701 kPa,1313.7 ± 1.5 kg/m3
same,mass density,8732 kPa,1313.9 ± 1.5 kg/m3
same,mass density,8768 kPa,1314.3 ± 1.5 kg/m3
same,mass density,8804 kPa,1314.6 ± 1.5 kg/m3
same,mass density,8846 kPa,1314.9 ± 1.5 kg/m3
same,mass density,8884 kPa,1315.2 ± 1.5 kg/m3
same,mass density,8912 kPa,1315.8 ± 1.5 kg/m3
same,mass density,8940 kPa,1316 ± 1.5 kg/m3
same,mass density,9044 kPa,1316.8 ± 1.5 kg/m3
same,mass density,9087 kPa,1317.2 ± 1.5 kg/m3
same,mass density,9121 kPa,1317.5 ± 1.5 kg/m3
same,mass density,9164 kPa,1317.9 ± 1.5 kg/m3
same,mass density,9196 kPa,1318 ± 1.5 kg/m3
same,mass density,9219 kPa,1318.3 ± 1.5 kg/m3
same,mass density,9251 kPa,1318.6 ± 1.5 kg/m3
same,mass density,9270 kPa,1318.8 ± 1.5 kg/m3
same,mass density,9294 kPa,1319 ± 1.5 kg/m3
same,mass density,9321 kPa,1319.3 ± 1.5 kg/m3
same,mass density,9349 kPa,1319.5 ± 1.5 kg/m3
same,mass density,9370 kPa,1319.7 ± 1.5 kg/m3
same,mass density,9402 kPa,1319.9 ± 1.5 kg/m3
same,mass density,9422 kPa,1320.1 ± 1.5 kg/m3
same,mass density,9455 kPa,1320.4 ± 1.5 kg/m3
same,mass density,9483 kPa,1320.7 ± 1.5 kg/m3
same,mass density,9512 kPa,1320.9 ± 1.5 kg/m3
same,mass density,9533 kPa,1321.1 ± 1.5 kg/m3
same,mass density,9552 kPa,1321.1 ± 1.5 kg/m3
same,mass density,9578 kPa,1321.4 ± 1.5 kg/m3
same,mass density,9599 kPa,1321.5 ± 1.5 kg/m3
same,mass density,9631 kPa,1321.9 ± 1.5 kg/m3
same,mass density,9652 kPa,1322.1 ± 1.5 kg/m3
same,mass density,9684 kPa,1322.3 ± 1.5 kg/m3
same,mass density,9713 kPa,1322.7 ± 1.5 kg/m3
same,mass density,9737 kPa,1322.8 ± 1.5 kg/m3
same,mass density,10680 kPa,1330.6 ± 1.5 kg/m3
same,mass density,10703 kPa,1330.9 ± 1.5 kg/m3
same,mass density,10737 kPa,1331 ± 1.5 kg/m3
same,mass density,10763 kPa,1331.3 ± 1.5 kg/m3
same,mass density,10786 kPa,1331.6 ± 1.5 kg/m3
same,mass density,10813 kPa,1331.6 ± 1.5 kg/m3
same,mass density,11004 kPa,1333.2 ± 1.5 kg/m3
same,mass density,11030 kPa,1333.5 ± 1.5 kg/m3
same,mass density,11055 kPa,1333.5 ± 1.5 kg/m3
same,mass density,11083 kPa,1333.8 ± 1.5 kg/m3
same,mass density,11507 kPa,1337.2 ± 1.5 kg/m3
same,mass density,11567 kPa,1337.7 ± 1.5 kg/m3
same,mass density,11594 kPa,1337.8 ± 1.5 kg/m3
same,mass density,11620 kPa,1338 ± 1.5 kg/m3
same,mass density,11651 kPa,1338.3 ± 1.5 kg/m3
same,mass density,11678 kPa,1338.4 ± 1.5 kg/m3
same,mass density,11705 kPa,1338.6 ± 1.5 kg/m3
same,mass density,11734 kPa,1338.8 ± 1.5 kg/m3
same,mass density,11757 kPa,1339 ± 1.5 kg/m3
same,mass density,12501 kPa,1344.5 ± 1.5 kg/m3
same,mass density,12533 kPa,1344.8 ± 1.5 kg/m3
same,mass density,12561 kPa,1345 ± 1.5 kg/m3
same,mass density,12589 kPa,1345.2 ± 1.5 kg/m3
same,mass density,12616 kPa,1345.4 ± 1.5 kg/m3
same,mass density,12648 kPa,1345.7 ± 1.5 kg/m3
same,mass density,12675 kPa,1345.9 ± 1.5 kg/m3
same,mass density,12698 kPa,1346.1 ± 1.5 kg/m3
same,mass density,12730 kPa,1346.2 ± 1.5 kg/m3
same,mass density,12754 kPa,1346.4 ± 1.5 kg/m3
same,mass density,12789 kPa,1346.6 ± 1.5 kg/m3
same,mass density,12823 kPa,1347 ± 1.5 kg/m3
same,mass density,12846 kPa,1347.1 ± 1.5 kg/m3
same,mass density,13551 kPa,1352.2 ± 1.5 kg/m3
same,mass density,13574 kPa,1352.3 ± 1.5 kg/m3
same,mass density,13601 kPa,1352.5 ± 1.5 kg/m3
same,mass density,13746 kPa,1353.4 ± 1.5 kg/m3
same,mass density,13772 kPa,1353.6 ± 1.5 kg/m3
same,mass density,13801 kPa,1353.7 ± 1.5 kg/m3
same,mass density,13830 kPa,1354.1 ± 1.5 kg/m3
same,mass density,13863 kPa,1354.3 ± 1.5 kg/m3
same,mass density,13893 kPa,1354.5 ± 1.5 kg/m3
same,mass density,14170 kPa,1356.5 ± 1.5 kg/m3
same,mass density,14195 kPa,1356.8 ± 1.5 kg/m3
